Several values for one entry are separate records, joined by “and”; a condition that tells them apart may be missing. Equal values may be shown once. Inconclusive results and toxic doses are left out. The calls were made as follows: active = survival T/C of 150% or more; inactive = T/C below 125% in these data.
Test system: BDF1 mice, B16 melanoma ip, median survival T/C
Test: NCI In Vivo Anticancer Drug Screen. Data for tumor model B16 Melanoma (intraperitoneal) in B6D2F1 (BDF1) mice
Conditions: endpoint: median survival time, higher = longer survival
Outline: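 Vehicle-treated animals serve as the reference (C); treated animals (T) are scored for survival or tumor size after tumor transplantation.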

[1] = dose: 4.0 mg/kg/injection, schedule: Q01DX009 (ip), vehicle: saline with Tween-80
[2] = dose: 8.0 mg/kg/injection, schedule: Q01DX009 (ip), vehicle: saline with Tween-80
[3] = dose: 25.0 mg/kg/injection, schedule: Q01DX009 (ip), vehicle: saline with Tween-80
[4] = dose: 50.0 mg/kg/injection, schedule: Q01DX009 (ip), vehicle: saline with Tween-80
[5] = dose: 100.0 mg/kg/injection, schedule: Q01DX009 (ip), vehicle: saline with Tween-80
[6] = dose: 200.0 mg/kg/injection, schedule: Q01DX009 (ip), vehicle: saline with Tween-80

Measured: T/C

CC(=O)OC(C)(C)/C=C/C(=O)[C@](C)(O)[C@H]1[C@H](O)C[C@@]2(C)[C@@H]3CC=C4[C@@H](C=C(O)C(=O)C4(C)C)[C@]3(C)C(=O)C[C@]12C
inactive: dose: 0.25 mg/kg/injection, schedule: Q01DX009 (ip), vehicle: saline with Tween-80 90 % of control | dose: 0.5 mg/kg/injection, schedule: Q01DX009 (ip), vehicle: saline with Tween-80 109 % of control | dose: 1.0 mg/kg/injection, schedule: Q01DX009 (ip), vehicle: saline with Tween-80 102 % of control | dose: 2.0 mg/kg/injection, schedule: Q01DX009 (ip), vehicle: saline with Tween-80 93 % of control | [1] 95 % of control

CN(Cc1cnc2nc(N)nc(N)c2n1)c1ccc(C(=O)N[C@@H](CCC(=O)O)C(=O)O)cc1
inactive: dose: 0.25 mg/kg/injection, schedule: Q01DX009 (ip), vehicle: saline 102 % of control | dose: 0.25 mg/kg/injection, schedule: Q01DX017 (ip), vehicle: saline 107 % of control | dose: 0.37 mg/kg/injection, schedule: Q01DX009 (ip), vehicle: sodium bicarbonate 93 % of control and 103 % of control | dose: 0.5 mg/kg/injection, schedule: Q01DX009 (ip), vehicle: sodium bicarbonate 92 % of control and 103 % of control (2×) | dose: 0.5 mg/kg/injection, schedule: Q01DX017 (ip), vehicle: saline 104 % of control | dose: 0.75 mg/kg/injection, schedule: Q01DX009 (ip), vehicle: sodium bicarbonate 104 % of control and 105 % of control | dose: 1.0 mg/kg/injection, schedule: Q01DX017 (ip), vehicle: saline 111 % of control | dose: 1.5 mg/kg/injection, schedule: Q01DX009 (ip), vehicle: saline 92 % of control | dose: 1.5 mg/kg/injection, schedule: Q01DX009 (ip), vehicle: sodium bicarbonate 98 % of control and 106 % of control | dose: 2.0 mg/kg/injection, schedule: Q01DX017 (ip), vehicle: saline 88 % of control | dose: 2.0 mg/kg/injection, schedule: Q04DX005 (ip), vehicle: saline 107 % of control | dose: 3.0 mg/kg/injection, schedule: Q01DX009 (ip), vehicle: sodium bicarbonate 94 % of control and 100 % of control | dose: 4.0 mg/kg/injection, schedule: Q04DX003 (ip), vehicle: saline 113 % of control | dose: 4.0 mg/kg/injection, schedule: Q04DX005 (ip), vehicle: saline 109 % of control | dose: 6.0 mg/kg/injection, schedule: Q01DX009 (ip), vehicle: sodium bicarbonate 90 % of control | dose: 8.0 mg/kg/injection, schedule: Q04DX003 (ip), vehicle: saline 109 % of control | dose: 8.0 mg/kg/injection, schedule: Q04DX005 (ip), vehicle: saline 104 % of control | dose: 16.0 mg/kg/injection, schedule: Q04DX003 (ip), vehicle: saline 109 % of control | dose: 16.0 mg/kg/injection, schedule: Q04DX005 (ip), vehicle: saline 97 % of control | dose: 32.0 mg/kg/injection, schedule: Q01DX001 (ip), vehicle: saline 121 % of control | dose: 32.0 mg/kg/injection, schedule: Q04DX003 (ip), vehicle: saline 106 % of control | dose: 128.0 mg/kg/injection, schedule: Q01DX001 (ip), vehicle: saline 123 % of control

O=[N+]([O-])c1ccc(Cl)c([N+](=O)[O-])c1
inactive: dose: 5.0 mg/kg/injection, schedule: Q01DX009 (ip), vehicle: saline with Tween-80 100 % of control and 112 % of control | dose: 10.0 mg/kg/injection, schedule: Q01DX009 (ip), vehicle: saline with Tween-80 94 % of control and 99 % of control | dose: 20.0 mg/kg/injection, schedule: Q01DX009 (ip), vehicle: saline with Tween-80 99 % of control and 102 % of control | dose: 40.0 mg/kg/injection, schedule: Q01DX009 (ip), vehicle: saline with Tween-80 98 % of control and 107 % of control | dose: 80.0 mg/kg/injection, schedule: Q01DX009 (ip), vehicle: saline with Tween-80 100 % of control and 108 % of control

COC(=O)CC(=O)CBr
inactive: dose: 5.0 mg/kg/injection, schedule: Q01DX009 (ip), vehicle: saline 100 % of control | dose: 10.0 mg/kg/injection, schedule: Q01DX009 (ip), vehicle: saline 93 % of control | dose: 20.0 mg/kg/injection, schedule: Q01DX009 (ip), vehicle: saline 94 % of control

C=C1C(=O)OCC1(C(=O)OCC)C(=O)OCC
inactive: [1] 109 % of control | [2] 97 % of control | dose: 16.0 mg/kg/injection, schedule: Q01DX009 (ip), vehicle: saline with Tween-80 89 % of control

COc1cc(NS(C)(=O)=O)ccc1Nc1c2ccc(Cl)cc2nc2c(OC)cccc12
active: dose: 2.3 mg/kg/injection, schedule: Q01DX009 (ip), vehicle: other 156 % of control | dose: 3.0 mg/kg/injection, schedule: Q01DX009 (ip), vehicle: saline with Tween-80 152 % of control | dose: 3.13 mg/kg/injection, schedule: Q01DX009 (ip), vehicle: saline with Tween-80 178 % of control | dose: 4.5 mg/kg/injection, schedule: Q01DX009 (ip), vehicle: other 184 % of control | dose: 6.25 mg/kg/injection, schedule: Q01DX009 (ip), vehicle: saline with Tween-80 194 % of control | [2] 178 % of control and 185 % of control | dose: 9.0 mg/kg/injection, schedule: Q01DX009 (ip), vehicle: other 241 % of control | dose: 9.0 mg/kg/injection, schedule: Q04DX003 (ip), vehicle: water 152 % of control | dose: 12.0 mg/kg/injection, schedule: Q01DX009 (ip), vehicle: saline with Tween-80 190 % of control and 219 % of control | dose: 12.5 mg/kg/injection, schedule: Q01DX009 (ip), vehicle: saline with Tween-80 236 % of control | dose: 18.0 mg/kg/injection, schedule: Q01DX009 (ip), vehicle: saline with Tween-80 196 % of control | dose: 18.0 mg/kg/injection, schedule: Q04DX003 (ip), vehicle: water 172 % of control | dose: 36.0 mg/kg/injection, schedule: Q04DX003 (ip), vehicle: water 200 % of control
inactive: dose: 0.38 mg/kg/injection, schedule: Q01DX009 (ip), vehicle: saline with Tween-80 123 % of control | dose: 0.75 mg/kg/injection, schedule: Q01DX009 (ip), vehicle: saline with Tween-80 110 % of control | dose: 0.8 mg/kg/injection, schedule: Q01DX005 (iv), vehicle: water 96 % of control | dose: 0.8 mg/kg/injection, schedule: Q04DX003 (iv), vehicle: water 100 % of control | dose: 1.6 mg/kg/injection, schedule: Q01DX005 (iv), vehicle: water 104 % of control | dose: 1.6 mg/kg/injection, schedule: Q04DX003 (iv), vehicle: water 92 % of control | dose: 3.3 mg/kg/injection, schedule: Q01DX005 (iv), vehicle: water 106 % of control | dose: 3.3 mg/kg/injection, schedule: Q04DX003 (iv), vehicle: water 96 % of control | dose: 6.5 mg/kg/injection, schedule: Q01DX005 (iv), vehicle: water 109 % of control | dose: 6.5 mg/kg/injection, schedule: Q04DX003 (iv), vehicle: water 105 % of control | dose: 13.0 mg/kg/injection, schedule: Q04DX003 (iv), vehicle: water 111 % of control

CCOC(=O)c1[nH]c(C)nc1/N=N/N(C)C
inactive: dose: 12.5 mg/kg/injection, schedule: Q01DX009 (ip), vehicle: saline 111 % of control | dose: 25.0 mg/kg/injection, schedule: Q01DX009 (ip), vehicle: saline 110 % of control | dose: 50.0 mg/kg/injection, schedule: Q01DX009 (ip), vehicle: saline 111 % of control | dose: 100.0 mg/kg/injection, schedule: Q01DX009 (ip), vehicle: saline 123 % of control

O=c1[nH]c(=O)n(C2CC(O)C(CO)O2)cc1I (configuration not stated)
inactive: [3] 106 % of control | [4] 118 % of control | [5] 123 % of control | [6] 116 % of control | dose: 400.0 mg/kg/injection, schedule: Q01DX009 (ip), vehicle: saline with Tween-80 120 % of control
active: dose: 800.0 mg/kg/injection, schedule: Q01DX009 (ip), vehicle: saline with Tween-80 150 % of control

CC(=O)C1=C(C)NC(C)=C(C(C)=O)C1c1cccc([N+](=O)[O-])c1
inactive: [3] 94 % of control | [4] 94 % of control | [5] 97 % of control

Cc1cc2nc(CN)[nH]c2cc1C
inactive: [4] 110 % of control | [5] 97 % of control | [6] 97 % of control

CC(C)=CCN1CCC2(C)c3cc(O)ccc3CC1C2C (configuration not stated)
inactive: dose: 0.39 mg/kg/injection, schedule: Q01DX009 (ip), vehicle: Klucel (hydroxypropylcellulose) (HPC) 123 % of control | dose: 0.78 mg/kg/injection, schedule: Q01DX009 (ip), vehicle: Klucel (hydroxypropylcellulose) (HPC) 102 % of control | dose: 1.56 mg/kg/injection, schedule: Q01DX009 (ip), vehicle: Klucel (hydroxypropylcellulose) (HPC) 123 % of control | dose: 6.25 mg/kg/injection, schedule: Q01DX009 (ip), vehicle: Klucel (hydroxypropylcellulose) (HPC) 105 % of control
